Data as given in US10034886B2, “GLP-1 receptor modulators” (Celgene International II SÀRL, priority 2014, dated 2018).

Target: T1, GLP-1R (Homo sapiens, UniProt P43220)
T1 construct: host or cells: GLP-1R CRE-bla CHO-K1 cells
Assay: EC20 GLP-1(9-36) PAM cAMP assay: dose response of compound in the presence of fixed concentration of GLP-1(9-36)
Format: cell-based
Conditions: GLP-1R CRE-bla CHO-K1 cells, compound dose response with fixed concentration of GLP-1(9-36), read-out: EC20 GLP-1(9-36) PAM EC50
Protocol: EC20 GLP-1(9-36) PAM cAMP Assay: Dose Response of Compound in the Presence of Fixed Concentration of GLP-1 (9-36).
GLP-1R CRE-bla CHO-K1 cells cultured in growth medium (DMEM-High glucose, 10% dialyzed FBS, 0.1 mM NEAA, 25 mM Hepes, 100 U/mL penicillin/100 μg/mL streptomycin, 5 μg/mL Blasticidin, 600 μg/mL Hygromycin) were trypsinized and plated in suspension into 384 well white flat bottom plates at 5000 cells/well in 12 μL assay buffer (Hanks Balanced Salt solution, 10 mM hepes, 0.1% BSA, pH 7.4). A 5× compound dose response curve (12-point) was generated in assay buffer containing 1.5 mM IBMX, 4% DMSO. GLP-1(9-36) was diluted to 4.2 μM in assay buffer containing 1.5 mM IMBX and 4% DMSO. The 5× compound dose response was added (3 μL), followed by 0.5 μL of GLP-1(9-36) and cells were incubated for 30 min at 37° C. Direct detection of cAMP was carried out using DiscoveRx HitHunter cAMP kit according to manufacturer's instructions and luminescence was read using a SpectraMax M5 plate reader. Luminescence was converted to total cAMP using a cAMP standard curve and data was analyzed by non-linear regression to determine the EC50 and Emax.
GLP-1(7-36): […]-NH2 (SEQ ID NO: 2). GLP-1(9-36): […]-NH2 (SEQ ID NO: 3). GLP-1(7-36) was purchased from GenScript. GLP-1(9-36) was purchased from Biopeptide Co., Inc.
The EC20GLP-1(9-36) PAM Activity range is denoted as follows: + denotes activity <0.8 μM, ++ denotes activity between 0.8 and 2.5 μM, +++ denotes activity between 2.5 and 5 μM, and ++++ denotes activity 5 to 10 μM.

T1 sequence (P43220 24-463): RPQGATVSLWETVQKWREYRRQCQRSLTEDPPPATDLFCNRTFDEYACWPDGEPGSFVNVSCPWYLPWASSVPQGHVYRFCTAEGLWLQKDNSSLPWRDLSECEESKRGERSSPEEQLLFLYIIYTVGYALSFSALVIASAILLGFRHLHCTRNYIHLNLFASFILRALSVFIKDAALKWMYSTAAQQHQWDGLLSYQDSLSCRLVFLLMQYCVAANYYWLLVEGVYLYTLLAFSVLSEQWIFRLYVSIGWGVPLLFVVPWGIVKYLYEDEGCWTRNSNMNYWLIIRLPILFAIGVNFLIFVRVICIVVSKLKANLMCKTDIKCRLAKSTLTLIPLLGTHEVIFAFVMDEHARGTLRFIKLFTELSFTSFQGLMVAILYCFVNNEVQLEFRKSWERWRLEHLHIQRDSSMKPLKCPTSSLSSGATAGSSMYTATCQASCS
T1 sequence (P01275 100-127 partner limits assumed): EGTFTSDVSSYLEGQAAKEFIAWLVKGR

EC50, 800 to 2500 nM:
C[C@@H](NC(=O)[C@H](Cc1ccc(-c2ncc(-c3ccc(-c4ccc(C(C)(C)C)cc4)cc3)cn2)cc1)NC(=O)c1ccc(C(C)(C)C)s1)C(=O)O [Compound 1312]
CCCc1ccc(C(=O)N[C@@H](Cc2ccc(-c3ncc(-c4ccc(OCCCC(C)C)cc4)cn3)cc2)C(=O)N2CC(C(=O)O)C2)s1 [Compound 1240]

EC50, < 800 nM:
CC[C@H]1CC[C@H](c2ccc(-c3ccc(-c4ccc(C[C@H](NC(=O)c5ccc(C(C)(C)C)s5)C(=O)N5CC(C(=O)O)C5)cc4)cn3)cc2)CC1 [Compound 1341]
CCCCCCCOc1ccc(-c2cnc(-c3ccc(C[C@H](NC(=O)c4ccc(C(C)(C)C)s4)C(=O)N4CC(CN)(C(=O)O)C4)cc3)nc2)cc1 [Compound 1280]
CC(C)(C)c1ccc(C(=O)N[C@@H](Cc2ccc(-c3ncc(-c4ccc(-c5ccccc5C(F)(F)F)cc4F)cn3)cc2)C(=O)N2CC(C(=O)O)C2)s1 [Compound 1223]
C[C@@H](NC(=O)[C@H](Cc1ccc(-c2ncc(-c3ccc(-c4ccc(C(F)(F)F)cc4)cc3)cn2)cc1)NC(=O)c1ccc(C(C)(C)C)s1)C(=O)O [Compound 1313]
CCCc1ccc(-c2ccc(-c3cnc(-c4ccc(C[C@H](NC(=O)c5ccc(C(F)(F)F)cc5)C(=O)N5CC(C(=O)O)C5)cc4)nc3)c(F)c2)cc1 [Compound 1400]
CC(C)(C)c1ccc(C(=O)N[C@@H](Cc2ccc(-c3ncc(-c4ccc(-c5ccc(F)cc5)cc4F)cn3)cc2)C(=O)N2CC(C(=O)O)C2)s1 [Compound 1213]
CC[C@H]1CC[C@H](c2ccc(-c3cnc(-c4ccc(C[C@H](NC(=O)c5ccc(C(C)(C)C)cc5)C(=O)O)cc4)nc3)cc2)CC1 [Compound 1366]

Same assay, conditions: dose response of compound in presence of fixed concentration of GLP-1(9-36), GLP-1R CRE-bla CHO-K1 cells, read-out: EC20 GLP-1(9-36) PAM EC50

EC50, < 800 nM:
CCCCCCCOc1ccc(-c2cnc(-c3ccc(C[C@H](NC(=O)c4ccc(C(C)(C)C)s4)C(=O)NC(C(=O)O)C(O)c4ncccn4)cc3)nc2)cc1 (stereo partly drawn) [Compound 913]
CCCCCCCOc1ccc(-c2cnc(-c3ccc(C[C@H](NC(=O)c4ccc(C(C)(C)C)s4)C(=O)N[C@@H](Cc4cn(C)cn4)C(=O)O)cc3)nc2)cc1 [Compound 593]
CCCCCCCOc1ccc(-c2cnc(-c3ccc(C[C@H](NC(=O)c4ccc(C(C)(C)C)s4)C(=O)NS(=O)(=O)CC)cc3)nc2)cc1 [Compound 420]
CC(C)(C)CCCOc1ccc(-c2cnc(-c3ccc(C[C@H](NC(=O)c4ccc(C(C)(C)C)s4)C(=O)N4CC(C(=O)O)C4)cc3)nc2)cc1 [Compound 944]

EC50, 800 to 2500 nM:
CCCCCCCOc1ccc(-c2cnc(-c3ccc(CC(NC(=O)c4ccc(C(C)(C)C)s4)C(=O)N[C@@H](CCCCN)C(=O)O)cc3)nc2)cc1 (stereo partly drawn) [Compound 427]
CCCCCCCOc1ccc(-c2cnc(-c3ccc(C[C@H](NC(=O)c4ccc(C(C)(C)C)cc4)C(=O)N[C@@H](CC(=O)NS(C)(=O)=O)C(=O)O)cc3)nc2)cc1 [Compound 511]

EC50, 2500 to 5000 nM:
CCOc1ccc(-c2cnc(-c3ccc(C[C@H](NC(=O)c4ccc(C(C)(C)C)s4)C(=O)N[C@H](C)C(=O)O)cc3)nc2)cc1 [Compound 731]
CC(C)N(C(=O)c1ccc(-c2cnc(-c3ccc(C[C@H](NC(=O)c4ccc(C(C)(C)C)s4)C(=O)N[C@H](C)C(=O)O)cc3)nc2)cc1)C(C)C [Compound 1028]
CCCCCCCOc1ccc(-c2cnc(-c3ccc(C[C@H](NC(=O)c4ccc(C(C)(C)C)s4)C(=O)N4CC(N(C)C)C4)cc3)nc2)cc1 [Compound 976]
C[C@@H](NC(=O)[C@H](Cc1ccc(-c2ncc(-c3ccc(OCc4ccccc4)c(Cl)c3)cn2)cc1)NC(=O)c1ccc(C(C)(C)C)s1)C(=O)O [Compound 1001]
CCCCCCCOc1ccc(-c2cnc(-c3ccc(C[C@H](NC(=O)c4ccc(C(C)(C)C)cc4OC)C(=O)N4CC[C@H](C(=O)O)C4)cc3)nc2)cc1 [Compound 852]

EC50, 5000 to 10000 nM:
Cc1ccc(C(O)c2ccc(-c3cnc(-c4ccc(C[C@H](NC(=O)c5ccc(C(C)(C)C)s5)C(=O)N[C@H](C)C(=O)O)cc4)nc3)cc2)cc1 (stereo partly drawn) [Compound 1030]
